# US11731985B2, “Compositions and methods for treating cancer” (Hb Therapeutics Inc., priority 2018, dated 2023)
# Where a SMILES comes first, the peptide text is derived from it. The star is where a group is joined. Cbz = O=C(OCc1ccccc1)*
# Biological target: T1, SUMO1 (Homo sapiens, UniProt P63165)
# Experiment: Western and dot blot of normal lung epithelial Nuli-1 and lung cancer cells
# Assay type: cell-based
# Parameters: CPD24 treatment reduces SUMO1 conjugation and total levels of SUMO1 protein in the cancer but not normal cells; endogenous in cells
# Settings: not given
# T1 sequence (P63165 1-97 limits assumed): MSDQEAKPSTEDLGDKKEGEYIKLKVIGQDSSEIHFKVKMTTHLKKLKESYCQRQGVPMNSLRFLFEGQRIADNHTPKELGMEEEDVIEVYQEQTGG
row,Compound,SUMO1 conjugation and total SUMO1 protein in normal versus cancer cells
1,"N#Cc1ccc2nc(NC(=O)Nc3cccc(Cl)c3)sc2c1 [Compound 24, 1-(3-chlorophenyl)-3-(6-cyano-1,3-benzothiazol-2-yl)urea]",reduces SUMO1 conjugation and total levels of SUMO1 protein only in cancer cells

# Test system: lung A549 xenografts
# Experiment: Subcutaneous xenografts of lung A549 cancer cell line in nude mice
# Assay type: in vivo
# Settings: not given
# Procedure: (§1) For the therapeutic effects of the compounds, we examined the effects of CPD1 and CPD24 on various types of cancer xenografts in mice. […] NOD/SCID mice bearing intracranial brain xenografts of glioblastoma LN229 cell line were treated with CPD1.
row,Compound,xenograft progression
1,"N#Cc1ccc2nc(NC(=O)Nc3cccc(Cl)c3)sc2c1 [Compound 24, 1-(3-chlorophenyl)-3-(6-cyano-1,3-benzothiazol-2-yl)urea]",significantly suppressed xenograft progression

# Test system: colon HCT116 xenografts
# Experiment: Subcutaneous xenografts of colon HCT116 cancer cell line in nude mice
# Assay type: in vivo
# Settings: not given
# Procedure: as §1
row,Compound,xenograft progression
1,"N#Cc1ccc2nc(NC(=O)Nc3cccc(Cl)c3)sc2c1 [Compound 24, 1-(3-chlorophenyl)-3-(6-cyano-1,3-benzothiazol-2-yl)urea]",significantly suppressed xenograft progression

# Test system: SUMO1
# Experiment: Ubiquitination of Flag-SUMO1 (immunoprecipitation, western blot) in co-transfected LN229 cells
# Assay type: cell-based, human
# Settings: LN229 cells co-transfected with Flag-SUMO1-GV and HA-UB-WT
# Text: (§2) The non-conjugated Flag-tagged SUMO1 (Flag-SUMO1-GV) and the HA-tagged wild type (WT) UB (HA-UB-WT) were co-transfected in LN229 cells.
row,Compound,poly-ubiquitination of SUMO1 protein
1,"N#Cc1ccc2nc(NC(=O)Nc3cccc(Cl)c3)sc2c1 [Compound 24, 1-(3-chlorophenyl)-3-(6-cyano-1,3-benzothiazol-2-yl)urea]",results in the poly-ubiquitination of SUMO1 protein

# Test system: LN229 cells
# Experiment: Cell viability assay, LN229 cells
# Assay type: cell-based, human
# Settings: Homo sapiens, LN-229, LN229 cells, read-out: Inhibition of Cancer Cell Growth (IC50)
# Procedure: Each of the compounds was used to treat the cancer LN229 cells and examined first by western and dot blot assays for the degradation of SUMO1 protein and then by cell viability assay for the IC50 values of anticancer activity.
# (§3) LN229 cell were treated with a series of dilutions of CPD1 and examined by cell viability assay for cell growth inhibition (FIG. 2B). […] Therefore, CPD1 acts as the degrader of SUMO1 protein and inhibitor of SUMO1 conjugation in cancer cells.
row,Compound,IC50 [µM]
1,"N#Cc1ccc2nc(NC(=O)Nc3cccc(Cl)c3)sc2c1 [Compound 24, 1-(3-chlorophenyl)-3-(6-cyano-1,3-benzothiazol-2-yl)urea]",≤ 5
2,CN(C)C1CCc2nc(NC(=O)Nc3cccc(C#N)c3)sc2C1 (stereo not drawn) [Compound 69],≤ 20
3,N#Cc1cccc(NC(=O)Nc2nc3ccc(F)cc3s2)c1 [Compound 70],≤ 5
4,COc1cc(NC(=O)Nc2nc3ccc(C#N)cc3s2)ccn1 [Compound 71],≤ 5
5,N#Cc1cccc(NC(=O)Nc2nc3ccc([N+](=O)[O-])cc3s2)c1 [Compound 72],≤ 5
6,N#Cc1ccc2nc(NC(=O)NCc3ccccc3)sc2c1 [Compound 73],≤ 20
7,N#Cc1cccc(NC(=O)Nc2nc3ccc(Br)cc3s2)c1 [Compound 74],≤ 5
8,CC(=O)Nc1ccc2nc(NC(=O)Nc3cccc(C#N)c3)sc2c1 [Compound 75],> 20
9,CN(C(=O)Nc1nc2ccc(C#N)cc2s1)c1ccccc1 [Compound 76],> 20
10,N#Cc1cccc(NC(=O)Nc2nc3ccc(N)cc3s2)c1 [Compound 77],> 20
11,CCOC(=O)C1CCc2nc(NC(=O)Nc3cccc(C#N)c3)sc2C1 (stereo not drawn) [Compound 79],> 20
12,CCOC(=O)C1CCc2nc(NC(=O)Nc3cccc(Cl)c3)sc2C1 (stereo not drawn) [Compound 80],> 20
13,COc1cncc(NC(=O)Nc2nc3ccc(C#N)cc3s2)c1 [Compound 81],> 20
14,N#Cc1ccc2nc(NC(=O)Nc3cccc(N4CCOCC4)c3)sc2c1 [Compound 82],≤ 20
15,CN1CCN(c2cccc(NC(=O)Nc3nc4ccc(C#N)cc4s3)c2)CC1 [Compound 83],≤ 5
16,N#Cc1cc(NC(=O)Nc2nc3ccc(Cl)cc3s2)ccc1Cl [Compound 85],≤ 5
17,N#Cc1ccc(Cl)c(NC(=O)Nc2nc3ccc(Cl)cc3s2)c1 [Compound 86],≤ 5
18,N#Cc1cc(NC(=O)Nc2nc3ccc(Cl)cc3s2)ccc1Br [Compound 87],≤ 5
19,Cc1ccc(NC(=O)Nc2nc3ccc(Cl)cc3s2)cc1C#N [Compound 88],≤ 20
20,N#Cc1cccc(NC(=O)Nc2nc3c(s2)CC(C(N)=O)CC3)c1 (stereo not drawn) [Compound 89],> 20
21,"NC(=O)C1CCc2nc(NC(=O)Nc3cccc(Cl)c3)sc2C1 (stereo not drawn) [Compound 90, 2-[(3-chlorophenyl)carbamoylamino]-4,5,6,7-tetrahydro-1,3-benzothiazole-6-carboxamide]",> 20
22,N#Cc1ccc(NC(=O)Nc2nc3ccc(Cl)cc3s2)cc1C#N [Compound 91],≤ 5
23,N#Cc1cc(NC(=O)Nc2nc3ccc(Cl)cc3s2)ccc1F [Compound 92],≤ 5
24,N#Cc1cc(Cl)cc(NC(=O)Nc2nc3ccc(Cl)cc3s2)c1 [Compound 93],≤ 5
25,N#Cc1ccc(NC(=O)Nc2nc3ccc(Cl)cc3s2)cc1 [Compound 94],≤ 5
26,N#Cc1cccc(NC(=O)Nc2nc3ccc(Cl)cc3s2)c1F [Compound 95],> 20

row,Compound,IC50 [µM]
1,N#Cc1ccc(F)c(NC(=O)Nc2nc3ccc(Cl)cc3s2)c1 [Compound 96],≤ 5
2,N#CC1CCc2nc(NC(=O)Nc3cccc(Cl)c3)sc2C1 (stereo not drawn) [Compound 97],≤ 20
3,N#Cc1ccc2nc(NC(=O)Nc3cccc(Oc4ccccc4)c3)sc2c1 [Compound 98],≤ 5
4,N#Cc1ccc2nc(NC(=O)Nc3ccnc(Cl)c3)sc2c1 [Compound 99],≤ 5
5,N#Cc1cccc(NC(=O)Nc2nc3ccc(C(F)(F)F)cc3s2)c1 [Compound 100],≤ 5
6,N#Cc1cccc(NC(=O)Nc2nc3c(Cl)cc(Cl)cc3s2)c1 [Compound 101],≤ 5
7,N#Cc1cccc(NC(=O)Nc2nc3c(F)cc(F)cc3s2)c1 [Compound 102],≤ 5
8,N#Cc1cccc(NC(=O)Nc2nc3ccc(OC(F)(F)F)cc3s2)c1 [Compound 103],≤ 5
9,N#Cc1ccc(NC(=O)Nc2nc3ccc(Cl)cc3s2)c(Cl)c1 [Compound 104],≤ 5
10,N#Cc1cc(F)cc(NC(=O)Nc2nc3ccc(Cl)cc3s2)c1 [Compound 105],≤ 5
11,N#Cc1cc(Br)cc(NC(=O)Nc2nc3ccc(Cl)cc3s2)c1 [Compound 106],≤ 20
12,N#Cc1ccc(NC(=O)Nc2nc3ccc(Cl)cc3s2)cc1F [Compound 107],≤ 5
13,N#Cc1ccc2nc(NC(=O)Nc3ccc4[nH]c(=O)[nH]c4c3)sc2c1 [Compound 108],> 20
14,N#Cc1ccc2nc(NC(=O)Nc3cccc4ccccc34)sc2c1 [Compound 109],> 20
15,N#Cc1ccc2nc(NC(=O)Nc3ccc4ccccc4c3)sc2c1 [Compound 110],≤ 20
16,Cn1ncc2ccc(NC(=O)Nc3nc4ccc(C#N)cc4s3)cc21 [Compound 111],> 20
17,N#Cc1ccc2nc(NC(=O)Nc3cccc(C(=O)OCCOCCN)c3)sc2c1 [Compound 112],> 20
18,"N#Cc1cc(F)cc(NC(=O)Nc2nc3ccc(C(F)(F)F)cc3s2)c1 [Compound 113, 1-(3-cyano-5-fluorophenyl)-3-[6-(trifluoromethyl)-1,3-benzothiazol-2-yl]urea]",≤ 5
19,CS(=O)(=O)c1ccc2nc(NC(=O)Nc3cccc(C#N)c3)sc2c1 [Compound 114],≤ 20
20,N#Cc1cc(Cl)cc(NC(=O)Nc2nc3ccc(C(F)(F)F)cc3s2)c1 [Compound 115],≤ 5
21,N#Cc1ccc(NC(=O)Nc2nc3ccc(C(F)(F)F)cc3s2)c(Cl)c1 [Compound 116],≤ 5
22,N#Cc1ccc(NC(=O)Nc2nc3ccc(C(F)(F)F)cc3s2)cc1 [Compound 117],≤ 5
23,N#Cc1ccc(NC(=O)Nc2nc3ccc(Cl)cc3s2)cc1Cl [Compound 118],≤ 5
24,N#Cc1ccc(NC(=O)Nc2nc3ccc(Cl)cc3s2)cc1C(F)(F)F [Compound 119],≤ 5
25,N#Cc1c(F)ccc(NC(=O)Nc2nc3ccc(Cl)cc3s2)c1F [Compound 122],≤ 5
26,N#Cc1ccc(NC(=O)Nc2nc3ccc(Cl)cc3s2)c(F)c1 [Compound 123],≤ 20

# Same assay, conditions: LN229 cells, FIG. 3A
row,Compound,"inhibition of the cell growth, compared with the other representative compounds"
1,"N#Cc1ccc2nc(NC(=O)Nc3cccc(Cl)c3)sc2c1 [Compound 24, 1-(3-chlorophenyl)-3-(6-cyano-1,3-benzothiazol-2-yl)urea]",much more potent in inhibition of the cell growth

# Same assay, conditions: LN229 cells, read-out: Inhibition of Cancer Cell Growth (IC50)
row,Compound,IC50 [µM]
1,CC(C)(C)OC(=O)NCCOCCOc1cccc(NC(=O)Nc2nc3ccc(C#N)cc3s2)c1 [Compound 120],≤ 5
2,N#Cc1ccc2nc(NC(=O)Nc3cccc(OCCOCCN)c3)sc2c1 [Compound 121],> 20

# Test system: lung cancer PDX (L1102F)
# Experiment: Patient derived xenograft of lung cancer (L1102F)
# Assay type: in vivo, mice
# Settings: not given
# Text: (§4) The left two graphs show data for compounds CPD1 and the middle two graphs show data for CPD24 treatment of colon cancer PDX (L1206F). […] The right two graphs show data for compound CPD1 and CPD24 treatment of lung cancer PDX (L1102F). […] The significance of **P<0.01, and ***P<0.001 was statistically analyzed.
# as §1
row,Compound,mouse body weight
1,"N#Cc1ccc2nc(NC(=O)Nc3cccc(Cl)c3)sc2c1 [Compound 24, 1-(3-chlorophenyl)-3-(6-cyano-1,3-benzothiazol-2-yl)urea]",no effects of the treatment on mouse body weight

# Same assay, conditions: CPD24 25 and 50 mg/kg versus CPD1 100 mg/kg
row,Compound,"PDX growth inhibition, potency compared with CPD1"
1,"N#Cc1ccc2nc(NC(=O)Nc3cccc(Cl)c3)sc2c1 [Compound 24, 1-(3-chlorophenyl)-3-(6-cyano-1,3-benzothiazol-2-yl)urea]",more potent

# Same assay, conditions: CPD24 25 and 50 mg/kg, CPD1 100 mg/kg
row,Compound,PDX growth
1,"N#Cc1ccc2nc(NC(=O)Nc3cccc(Cl)c3)sc2c1 [Compound 24, 1-(3-chlorophenyl)-3-(6-cyano-1,3-benzothiazol-2-yl)urea]",markedly inhibits the PDX growth

# Biological target: T1, SUMO1
# Experiment: Western and dot blot assays for SUMO1 conjugation and SUMO1 protein levels in LN229 cells
# Assay type: cell-based
# Parameters: analyzed by western blotting for detection of the conjugate and free form of SUMO1 protein and dot blotting for total levels of SUMO1 protein; endogenous in cells; host or cells: LN229 glioblastoma cells
# Settings: LN229 cells treated with CPD1, followed by MG132
# Procedure: FIG. 2A illustrates how the glioblastoma LN229 cell line was treated with each of compounds of the National Cancer Institute (NCI) Diversity Set IV library and analyzed by western blot assays using SUMO1, SUMO2/3, UB and β-actin antibodies.
# as §3, §2
row,Compound,effect of MG132 on CPD1-induced degradation of SUMO1 protein
1,"CC(C)C[C@@H](C=O)NC(=O)[C@H](CC(C)C)NC(=O)[C@H](CC(C)C)NC(=O)OCc1ccccc1 [MG132, reference compound] (Cbz-Leu-Leu-Leu-aldehyde)",prevents CPD1-induced degradation of SUMO1 protein

# Test system: colon cancer PDX (L1206F)
# Experiment: Patient derived xenograft of colon cancer (L1206F)
# Assay type: in vivo, mice
# Settings: not given
# Text: as §4, §1
Compound,body weight of mice,tumor growth (tumor sizes)
"N#Cc1ccc2nc(NC(=O)Nc3cccc(Cl)c3)sc2c1 [Compound 24, 1-(3-chlorophenyl)-3-(6-cyano-1,3-benzothiazol-2-yl)urea]",had no effects on the body weight of mice,significantly inhibits the tumor growth of the colon cancer PDXs

# Test system: not listed separately
# Experiment: Tolerability across all xenograft mice
# Assay type: in vivo
# Settings: over the treatment period
# Procedure: as §1
row,Compound,"tolerability, clinical signs"
1,"N#Cc1ccc2nc(NC(=O)Nc3cccc(Cl)c3)sc2c1 [Compound 24, 1-(3-chlorophenyl)-3-(6-cyano-1,3-benzothiazol-2-yl)urea]","well tolerated over the treatment period with no clinical signs of lethargy, ataxia, paralysis, seizure or weight loss"
